Earlier results on one compound are cited in patent publication US20130177646A1, “Solid Nicotine-Comprising Dosage Form with Reduced Organoleptic Disturbance” (priority 2012, published 2013).

For this data set the following is noted: smoking a cigarette.

Turning to `CN1CCCC1c1cccnc1` (stereo not shown) [nicotine], the “time for nicotine to reach the brain after inhalation” value was “around ten”.
